{"source": "patent US20120142720A1", "about": "“Phenylethanoic Acid, Phenylpropanoic Acid and Phenylpropenoic Acid Conjugates and Prodrugs of Hydrocodone, Methods of Making and Use Thereof” (KEMPHARM, INC., priority 2009, published 2012)", "key": {"[1]": {"test": "Chemical stability: hydrolysis to hydrocodone in 1N HCl", "conditions": "1 hour"}, "[2]": {"test": "Water solubility / feasibility of intravenous or intranasal dosing", "conditions": "with regard to intravenous or intranasal dosing at oral equivalent doses"}, "[3]": {"test": "Chemical stability: hydrolysis in 5% NaHCO3", "type": "physicochemical", "conditions": "5% NaHCO3, one hour"}, "[4]": {"test": "Intranasal PK profile in rats, plasma hydrocodone and hydromorphone by LC-MS/MS"}, "[5]": {"test": "Oral PK profile in rats, plasma hydrocodone and hydromorphone by LC-MS/MS"}, "[6]": {"conditions": "equivalent to 2 mg/kg freebase hydrocodone, FIG. 7"}, "[7]": {"conditions": "equivalent to 2 mg/kg freebase hydrocodone, FIG. 8"}}, "data": [{"smiles": "COc1ccc2c3c1OC1C(OC(=O)CCCCC(=O)O)=CC[C@H]4[C@@H](C2)N(C)CC[C@]314", "note": "(stereo partly drawn) [Adipate-HC]", "values": [{"measurement": "initial amount of conjugate hydrolyzed", "setting": "[1]; ambient (~20° C.)", "result": 13, "unit": "%"}, {"measurement": "initial amount of conjugate hydrolyzed", "setting": "[1]; oil bath 100° C.", "result": 100, "unit": "%"}, {"measurement": "water solubility", "setting": "[2]", "result": "water-soluble"}, {"measurement": "initial amount of conjugate hydrolyzed", "setting": "[3]; ambient (~20° C.)", "result": 3, "unit": "%"}, {"measurement": "initial amount of conjugate hydrolyzed", "setting": "[3]; oil bath 100° C.", "result": 100, "unit": "%"}, {"measurement": "hydrocodone AUC, higher than Ibu-HC", "setting": "[4]; [6]", "result": "approximately 170%"}, {"measurement": "hydrocodone Cmax, higher than Ibu-HC", "setting": "[4]; [6]", "result": "~245", "unit": "%"}, {"measurement": "hydromorphone AUC, higher than Ibu-HC", "setting": "[4]; [7]", "result": "approximately 940%"}, {"measurement": "hydromorphone Cmax, higher than Ibu-HC", "setting": "[4]; [7]", "result": "~1,010%"}]}, {"smiles": "COc1ccc2c3c1OC1C(OC(=O)/C=C/c4ccccc4)=CCC4C(C2)N(C)CCC314", "note": "(stereo not drawn) [Cinnamate-HC, cinnamate-hydrocodone]", "values": [{"measurement": "hydrocodone plasma concentrations during subsequent elimination compared with Hydrocodone.BT", "setting": "[5]; equivalent to 2 mg/kg freebase hydrocodone, FIG. 9", "result": "similar"}]}, {"smiles": "COc1ccc2c3c1OC1C(OC(=O)COCC(=O)O)=CC[C@H]4[C@@H](C2)N(C)CC[C@]314", "note": "(stereo partly drawn) [Diglycolate-HC]", "values": [{"measurement": "water solubility", "setting": "[2]", "result": "water-soluble"}]}, {"smiles": "COc1ccc2c3c1O[C@H]1C(=O)CC[C@H]4[C@@H](C2)N(C)CC[C@]314.O=C(O)C(O)C(O)C(=O)O", "note": "[Hydrocodone.BT, hydrocodone bitartrate]", "values": [{"measurement": "hydrocodone AUC, higher than Ibu-HC", "setting": "[4]; Example 6, FIG. 11", "result": "approximately 300%"}, {"measurement": "hydrocodone Cmax, higher than Ibu-HC", "setting": "[4]; Example 6, FIG. 11", "result": "~525", "unit": "%"}]}, {"smiles": "COc1ccc2c3c1OC1C(OC(=O)C(C)c4ccc(CC(C)C)cc4)=CCC4C(C2)N(C)CCC314", "note": "(stereo not drawn) [Ibu-HC, ibuprofen-hydrocodone]", "values": [{"measurement": "hydromorphone AUC compared with Diglycolate-HC", "setting": "[5]; equivalent of 2 mg/kg hydrocodone freebase, FIG. 6", "result": "similar"}, {"measurement": "hydrocodone and hydromorphone plasma concentrations compared with unconjugated Hydrocodone.BT", "setting": "[5]; equivalent to 2 mg/kg freebase hydrocodone, FIG. 9 and FIG. 10", "result": "similar"}, {"measurement": "AUC and Cmax values (hydrocodone and hydromorphone) compared with Hydrocodone.BT", "setting": "[5]; same dose based on hydrocodone freebase", "result": "within the range of bioequivalence"}, {"measurement": "water solubility", "setting": "[2]", "result": "very low water solubility"}, {"measurement": "initial amount of conjugate hydrolyzed", "setting": "[3]; ambient (~20° C.)", "result": 0, "unit": "%"}, {"measurement": "initial amount of conjugate hydrolyzed", "setting": "[3]; oil bath 100° C.", "result": 22, "unit": "%"}, {"measurement": "hydrocodone plasma concentrations compared with Hydrocodone.BT", "setting": "[4]; Example 6, FIG. 11", "result": "significantly lower"}, {"measurement": "hydromorphone plasma concentration compared with Hydrocodone.BT", "setting": "[4]; Example 6, FIG. 12", "result": "very low plasma concentration"}, {"measurement": "hydrocodone plasma concentrations compared with Adipate-HC", "setting": "[4]; [6]", "result": "significantly lower"}, {"measurement": "hydromorphone plasma concentration compared with Adipate-HC", "setting": "[4]; [7]", "result": "very low plasma concentration"}]}, {"smiles": "COc1ccc2cc(C(C)C(=O)OC3=CCC4C5Cc6ccc(OC)c7c6C4(CCN5C)C3O7)ccc2c1", "note": "(stereo not drawn) [Naproxen-HC, naproxen-hydrocodone]", "values": [{"measurement": "initial amount of conjugate hydrolyzed", "setting": "[1]; ambient (~20° C.)", "result": 0, "unit": "%"}, {"measurement": "initial amount of conjugate hydrolyzed", "setting": "[1]; oil bath 100° C.", "result": 33, "unit": "%"}, {"measurement": "initial amount of conjugate hydrolyzed", "setting": "[3]; ambient (~20° C.)", "result": 0, "unit": "%"}, {"measurement": "initial amount of conjugate hydrolyzed", "setting": "[3]; oil bath 100° C.", "result": 8, "unit": "%"}]}]}
